The text below walks through data of patent US20260265238A1, “COMPOUNDS AND PHARMACEUTICAL COMPOSITIONS THAT DEGRADE SWI/SNF-RELATED MATRIX-ASSOCIATED ACTIN-DEPENDENT REGULATOR OF CHROMATIN SUBFAMILY A” (Plexium, Inc., priority 2023, published 2026).

The DC50 is the concentration at which degradation of the target reaches its halfway point. A low value points to degradation at low concentration. As a reminder, the inhibition is the relative decrease from the control value, in per cent.

For experiment [1], the target named is T1, SMARCA2-HiBiT HeLa cells (protein which is expressed from the SMARCA2 gene) (Homo sapiens, UniProt P51531).
T1 construct: protein which is expressed from the SMARCA2 and SMARCA4 genes; host or cells: HeLa (SMARCA2-HiBiT engineered line)
T1 sequence (P51531 whole entry): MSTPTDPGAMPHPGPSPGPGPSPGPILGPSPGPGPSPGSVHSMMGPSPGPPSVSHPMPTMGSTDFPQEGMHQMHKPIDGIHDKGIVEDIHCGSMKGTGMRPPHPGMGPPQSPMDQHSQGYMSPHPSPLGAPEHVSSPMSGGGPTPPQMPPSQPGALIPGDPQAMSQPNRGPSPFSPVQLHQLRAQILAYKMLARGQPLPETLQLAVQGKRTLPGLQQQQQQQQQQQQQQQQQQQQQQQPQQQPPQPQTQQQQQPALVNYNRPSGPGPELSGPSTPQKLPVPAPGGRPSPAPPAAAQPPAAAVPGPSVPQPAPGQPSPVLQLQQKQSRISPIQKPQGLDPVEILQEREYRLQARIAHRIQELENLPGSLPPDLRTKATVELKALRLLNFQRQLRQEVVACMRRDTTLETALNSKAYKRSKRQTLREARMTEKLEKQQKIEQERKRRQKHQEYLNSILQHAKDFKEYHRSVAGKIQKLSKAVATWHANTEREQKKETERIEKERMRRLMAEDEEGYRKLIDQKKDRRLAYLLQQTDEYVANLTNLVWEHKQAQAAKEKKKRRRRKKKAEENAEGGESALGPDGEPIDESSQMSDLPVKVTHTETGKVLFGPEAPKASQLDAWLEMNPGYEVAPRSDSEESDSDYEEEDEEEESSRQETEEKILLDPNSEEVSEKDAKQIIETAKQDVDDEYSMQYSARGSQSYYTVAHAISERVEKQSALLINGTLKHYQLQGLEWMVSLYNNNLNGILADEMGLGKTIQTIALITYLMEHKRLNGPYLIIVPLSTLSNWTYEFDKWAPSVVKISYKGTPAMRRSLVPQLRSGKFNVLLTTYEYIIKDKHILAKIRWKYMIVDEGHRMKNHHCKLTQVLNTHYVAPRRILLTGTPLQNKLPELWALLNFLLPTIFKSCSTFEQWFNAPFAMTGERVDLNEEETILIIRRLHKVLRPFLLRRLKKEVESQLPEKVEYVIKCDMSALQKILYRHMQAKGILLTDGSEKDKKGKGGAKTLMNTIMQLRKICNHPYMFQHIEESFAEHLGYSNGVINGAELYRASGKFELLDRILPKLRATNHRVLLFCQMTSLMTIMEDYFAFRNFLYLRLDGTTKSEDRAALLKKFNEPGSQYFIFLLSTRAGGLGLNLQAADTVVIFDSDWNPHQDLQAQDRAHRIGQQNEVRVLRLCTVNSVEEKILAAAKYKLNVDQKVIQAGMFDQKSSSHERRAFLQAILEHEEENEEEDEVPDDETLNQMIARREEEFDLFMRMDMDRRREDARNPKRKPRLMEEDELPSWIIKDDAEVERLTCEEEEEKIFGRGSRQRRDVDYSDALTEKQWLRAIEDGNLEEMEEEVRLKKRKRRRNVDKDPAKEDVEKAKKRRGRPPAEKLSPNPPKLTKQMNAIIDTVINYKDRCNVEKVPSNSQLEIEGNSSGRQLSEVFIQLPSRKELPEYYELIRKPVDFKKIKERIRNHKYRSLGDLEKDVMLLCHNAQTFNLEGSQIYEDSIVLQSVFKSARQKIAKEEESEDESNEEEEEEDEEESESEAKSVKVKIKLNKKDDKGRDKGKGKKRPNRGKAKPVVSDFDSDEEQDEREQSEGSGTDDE
Description: SMARCA2 degradation assay (HiBiT-fusion HeLa cell line, 24 h, luminescence). Type of experiment: cell-based. A digest of the protocol:
(§1)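 HiBiT-fusion HeLa lines, 8,000 cells/well, overnight attachment; cpd 10-pt series (typically 10 μM–300 pM), 24 h, 37° C. Lysis with LgBiT + HiBiT substrate, 10 min shaking at RT, luminescence read. DC50 from dose-response fit; % degradation also scored at 1 μM.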
Background: The HiBiT peptide binds its large partner to form an active luciferase.

The target of experiment [2] is T2, SMARCA4-HiBiT HeLa cells (protein which is expressed from the SMARCA4 gene) (Homo sapiens, UniProt P51532).
T2 construct: protein which is expressed from the SMARCA2 and SMARCA4 genes; host or cells: HeLa (SMARCA4-HiBiT engineered line)
T2 sequence (P51532 whole entry): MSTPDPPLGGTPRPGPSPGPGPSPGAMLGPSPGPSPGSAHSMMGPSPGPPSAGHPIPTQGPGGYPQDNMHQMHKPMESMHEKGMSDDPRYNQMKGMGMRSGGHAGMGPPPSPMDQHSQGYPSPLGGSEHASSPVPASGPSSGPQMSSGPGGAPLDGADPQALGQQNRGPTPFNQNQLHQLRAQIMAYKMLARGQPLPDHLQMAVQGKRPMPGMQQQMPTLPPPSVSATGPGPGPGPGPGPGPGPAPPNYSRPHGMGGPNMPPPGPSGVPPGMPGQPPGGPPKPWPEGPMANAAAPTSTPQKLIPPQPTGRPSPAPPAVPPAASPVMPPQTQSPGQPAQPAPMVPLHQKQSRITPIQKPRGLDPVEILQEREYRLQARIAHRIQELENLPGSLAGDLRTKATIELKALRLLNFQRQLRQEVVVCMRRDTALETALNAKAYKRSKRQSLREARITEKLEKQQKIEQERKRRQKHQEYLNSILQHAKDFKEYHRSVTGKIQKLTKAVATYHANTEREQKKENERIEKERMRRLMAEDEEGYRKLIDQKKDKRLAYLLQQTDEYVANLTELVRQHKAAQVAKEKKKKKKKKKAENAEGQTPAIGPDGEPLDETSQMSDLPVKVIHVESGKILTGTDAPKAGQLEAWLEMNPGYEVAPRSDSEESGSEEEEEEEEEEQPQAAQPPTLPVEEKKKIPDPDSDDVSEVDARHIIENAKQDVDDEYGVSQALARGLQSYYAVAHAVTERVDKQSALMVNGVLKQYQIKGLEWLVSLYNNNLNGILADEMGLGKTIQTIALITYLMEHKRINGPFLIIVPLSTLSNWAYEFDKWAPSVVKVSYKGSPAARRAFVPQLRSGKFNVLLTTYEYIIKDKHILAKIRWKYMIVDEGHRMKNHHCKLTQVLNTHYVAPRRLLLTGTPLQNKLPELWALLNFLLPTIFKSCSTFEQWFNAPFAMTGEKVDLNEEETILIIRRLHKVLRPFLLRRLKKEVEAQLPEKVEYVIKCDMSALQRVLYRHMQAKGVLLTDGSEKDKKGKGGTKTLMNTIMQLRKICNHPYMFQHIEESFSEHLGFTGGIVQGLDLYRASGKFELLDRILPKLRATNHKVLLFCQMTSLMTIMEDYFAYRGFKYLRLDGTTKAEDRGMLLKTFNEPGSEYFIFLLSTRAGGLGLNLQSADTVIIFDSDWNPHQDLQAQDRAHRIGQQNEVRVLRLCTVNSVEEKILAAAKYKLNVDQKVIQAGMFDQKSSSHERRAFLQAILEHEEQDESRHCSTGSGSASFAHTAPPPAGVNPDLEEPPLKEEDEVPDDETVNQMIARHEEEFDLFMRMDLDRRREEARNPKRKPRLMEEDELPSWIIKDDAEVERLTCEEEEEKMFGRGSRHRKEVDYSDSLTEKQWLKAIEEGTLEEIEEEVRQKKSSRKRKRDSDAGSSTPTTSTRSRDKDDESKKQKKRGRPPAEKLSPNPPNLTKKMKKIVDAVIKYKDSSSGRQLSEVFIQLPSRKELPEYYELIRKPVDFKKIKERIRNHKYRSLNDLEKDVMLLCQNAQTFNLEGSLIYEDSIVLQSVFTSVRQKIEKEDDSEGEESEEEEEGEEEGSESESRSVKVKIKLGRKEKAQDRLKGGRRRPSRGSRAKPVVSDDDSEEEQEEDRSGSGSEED
Briefly: SMARCA4 degradation assay (HiBiT-fusion HeLa cell line, 24 h, luminescence). The class given is cell-based. The procedure, abridged: as §1

Where only a bound is given, the exact number is not on record here.

As to `Nc1nnc(-c2ccccc2O)cc1N1CCCN(c2ccnc(C#CCNC(=O)OCC(F)(F)F)n2)CC1` [Compound P-339, 6-(o-hydroxyphenyl)-4-(4-{2-[3-(2,2,2-trifluoroethoxycarbonylamino)-1-propynyl]-4-pyrimidinyl}-1,4-diazepan-1-yl)-3-pyridazinamine], the DC50 in experiment [1] and in experiment [2] was 50 to 500 nM in each case. Further, the “SMARCA2 % Degradation @ 1 μM” value in experiment [1] (@ 1 μM) was “+++ (+++=>70%)”. The inhibition at 1 µM in experiment [2] (@ 1 μM) was above 70%.

As for `Nc1nnc(-c2ccccc2O)cc1N1CCN(c2ccnc(C#CCNC(=O)c3ccn(C(F)F)n3)n2)CC1` [Compound P-10, N-[3-(4-{4-[3-amino-6-(2-hydroxyphenyl)pyridazin-4-yl]piperazin-1-yl}pyrimidin-2-yl)prop-2-yn-1-y1]-1-(difluoromethyl)-1H-pyrazole-3-carboxamide], the values for the DC50 in experiment [1] and in experiment [2] were 50 to 500 nM and below 50 nM, respectively. Also, in experiment [1] (@ 1 μM), the “SMARCA2 % Degradation @ 1 μM” value was “++ (++=30-70%)”. This molecule also gave an inhibition at 1 µM in experiment [2] (@ 1 μM) of 30 to 70%.

Turning to `COCC#Cc1nccc(N2CCCN(c3cc(-c4ccccc4O)nnc3N)CC2)n1` [Compound P-342, 0-(6-amino-5-{4-[2-(3-mcthoxy-1-propynyl)-4-pyrimidinyl]-1,4-diazepan-1-yl}-3-pyridazinyl)phenol], the half-maximal degradation concentration (DC50) in experiment [1] and in experiment [2] was 50 to 500 nM throughout. Moreover, the “SMARCA2 % Degradation @ 1 μM” value in experiment [1] (@ 1 μM) is reported as “++ (++=30-70%)”. In addition, the inhibition at 1 µM in experiment [2] (@ 1 μM) is 30 to 70%.

For `CN(C)CC#Cc1nccc(N2CC(n3cc(-c4cc(-c5ccccc5O)nnc4N)cn3)C2)n1` [Compound P-216, o-{6-amino-5-[1-(1-{2-[3-(dimethylamino)-1-propynyl]-4-pyrimidinyl}-3-azetidinyl)-4-pyrazolyl]-3-pyridazinyl} phenol], the DC50 in experiment [1] and in experiment [2] was below 50 nM in each case. The “SMARCA2 % Degradation @ 1 μM” value in experiment [1] (@ 1 μM) is on record as “++ (++=30-70%)”. In addition, in experiment [2] (@ 1 μM), the inhibition at 1 µM was 30 to 70%.

Turning to `Nc1nnc(-c2ccccc2O)cc1N1CC2CN(c3ccnc(C#CCNC(=O)c4cc5ncccn5n4)n3)CC2C1` (stereo not drawn) [Compound P-41, N-(3-(4-(5-(3-amino-6-(2-hydroxyphenyl)pyridazin-4-yl)hexahydropyrrolo[3,4-c]pyrrol-2(1H)-yl)pyrimidin-2-yl)prop-2-yn-1-yl)pyrazolo[1,5-a]pyrimidine-2-carboxamide], the 50% degradation concentration (DC50) in experiment [1] and in experiment [2] was 50 to 500 nM in each case. Moreover, in experiment [1] (@ 1 μM), the “SMARCA2 % Degradation @ 1 μM” value is reported as “++ (++=30-70%)”. In experiment [2] (@ 1 μM), the inhibition at 1 µM fell in the range of 30 to 70%.

Regarding `Nc1nnc(-c2ccccc2O)cc1N1CCN(c2ccnc(C#CCNC(=O)c3cccnc3)n2)CC1` [Compound P-4, N-[3-(4-{4-[3-amino-6-(2-hydroxyphenyl)pyridazin-4-yl]piperazin-1-yl}pyrimidin-2-yl)prop-2-yn-1-yl]pyridine-3-carboxamide], the DC50 in experiment [1] and in experiment [2] was 50 to 500 nM each time. Besides, the “SMARCA2 % Degradation @ 1 μM” value in experiment [1] (@ 1 μM) is recorded as “++ (++=30-70%)”. In experiment [2] (@ 1 μM), this molecule gave an inhibition at 1 µM below 30%.

Consider `C[C@@H]1CCN(c2cc(-c3ccccc3O)nnc2N)CCN1c1ccnc(C#CC2CN(C)C2)n1` [Compound P-192, o-{5-[(R)-5-methyl-4-{2-[2-(1-methyl-3-azetidinyl)ethynyl]-4-pyrimidinyl}-1,4-diazepan-1-y1]-6-amino-3-pyridaziny1} phenol], for which the DC50 is below 50 nM in experiment [1] and 50 to 500 nM in experiment [2]. Also, the “SMARCA2 % Degradation @ 1 μM” value in experiment [1] (@ 1 μM) is given as “+++ (+++=>70%)”. Also, the inhibition at 1 µM in experiment [2] (@ 1 μM) was 30 to 70%.

With `Cc1nn2ccn(CC#Cc3nccc(N4CC5CCC(C4)N5c4cc(-c5ccccc5O)nnc4N)n3)c(=O)c2c1C` [Compound P-282, 5-[3-(4-{8-[3-amino-6-(o-hydroxyphenyl)-4-pyridaziny1]-3,8-diazabicyclo[3.2.1]oct-3-yl}-2-pyrimidinyl)-2-propynyl]-2,3-dimethyl-1,5,7a-triaza-4(5H)-indenone], the half-maximal degradation concentration (DC50) in experiment [1] and in experiment [2] was 50 to 500 nM each time. Also, in experiment [1] (@ 1 μM), the “SMARCA2 % Degradation @ 1 μM” value is “++ (++=30-70%)”. This molecule also registered an inhibition at 1 µM in experiment [2] (@ 1 μM) of 30 to 70%.

For `CCOc1cc(N2CCCN(c3cc(-c4ccccc4O)nnc3N)CC2)nc(C#CCNC(=O)c2cc3ncccn3n2)n1` [Compound P-124, N-(3-(4-(4-(3-amino-6-(2-hydroxyphenyl)pyridazin-4-yl)-1,4-diazepan-1-yl)-6-ethoxypyrimidin-2-yl)prop-2-yn-1-yl)pyrazolo[1,5-a]pyrimidine-2-carboxamide], the DC50 in experiment [1] and in experiment [2] was 50 to 500 nM throughout. In experiment [1] (@ 1 μM), the “SMARCA2 % Degradation @ 1 μM” value was “++ (++=30-70%)”. The molecule also displayed an inhibition at 1 µM in experiment [2] (@ 1 μM) above 70%.

With `C[C@@H]1CCN(c2cc(-c3ccccc3O)nnc2N)CCN1c1ccc(C#N)c(C#CCN2CC(F)(F)C2)n1` [Compound P-412, 6-{(R)-4-[3-amino-6-(0-hydroxyphenyl)-4-pyridazinyl]-7-methyl-1,4-diazepan-1-yl}-2-[3-(3,3-difluoro-1-azetidinyl)-1-propynyl]nicotinonitrile], the DC50 in experiment [1] and in experiment [2] was 50 to 500 nM each time. In experiment [1] (1 μM), the “SMARCA2 % Degradation @ 1 μM” value is reported as “++ (++=30-70%)”. The inhibition at 1 µM in experiment [2] (1 μM) was below 30%.

In the case of `C[C@@H]1CCN(c2cc(-c3ccccc3O)nnc2N)CCN1c1ccnc(C#CCN2CC3CC2(C)C3)n1` [Compound P-190, o-{5-[(R)-5-methyl-4-(2-{3-(1-methyl-2-azabicyclo[2.1.1]hex-2-yl)-1-propynyl}-4-pyrimidinyl)-1,4-diazepan-1-yl]-6-amino-3-pyridazinyl}phenol], the DC50 in experiment [1] and in experiment [2] was 50 to 500 nM each time. In addition, the “SMARCA2 % Degradation @ 1 μM” value in experiment [1] (@ 1 μM) is on record as “+++ (+++=>70%)”. In experiment [2] (@ 1 μM), the inhibition at 1 µM is 30 to 70%.

With `COC[C@H](C)NCC#Cc1nccc(N2CCCN(c3cc(-c4ccccc4O)nnc3N)CC2)n1` [Compound P-276, 0-{5-[4-(2-{3-[(S)-2-methoxy-1-methylethylamino]-1-propynyl}-4-pyrimidinyl)-1,4-diazepan-1-yl]-6-amino-3-pyridazinyl}phenol], the DC50 in experiment [1] and in experiment [2] was 50 to 500 nM throughout. Also, the “SMARCA2 % Degradation @ 1 μM” value in experiment [1] (@ 1 μM) is “++ (++=30-70%)”. In addition, the inhibition at 1 µM in experiment [2] (@ 1 μM) was 30 to 70%.

Turning to `Cc1nn2ccn(CC#Cc3nccc(N4CCN(c5cc(-c6ccccc6O)nnc5N)CC[C@H]4C)n3)c(=O)c2c1C` [Compound P-336, 5-[3-(4-{ (R)-4-[3-amino-6-(o-hydroxyphenyl)-4-pyridazinyl]-7-methyl-1,4-diazepan-1-yl}-2-pyrimidinyl)-2-propynyl]-2,3-dimethyl-1,5,7a-triaza-4(5H)-indenone], the DC50 in experiment [1] and in experiment [2] was 50 to 500 nM throughout. For the same molecule, the “SMARCA2 % Degradation @ 1 μM” value in experiment [1] (@ 1 μM) was “++ (++=30-70%)”. Also, in experiment [2] (@ 1 μM), the inhibition at 1 µM was below 30%.

Turning to `Nc1nnc(-c2ccccc2O)cc1N1CCN(c2ccnc(C#CCNC(=O)c3cn4ccncc4n3)n2)CC1` [Compound P-60, N-(3-(4-(4-(3-amino-6-(2-hydroxyphenyl)pyridazin-4-yl)piperazin-1-yl)pyrimidin-2-yl)prop-2-yn-1-yl)imidazo[1,2-a]pyrazinc-2-carboxamidc], the half-maximal degradation concentration (DC50) in experiment [1] and in experiment [2] was 50 to 500 nM in each case. Further, in experiment [1] (@ 1 μM), the “SMARCA2 % Degradation @ 1 μM” value is listed as “++ (++=30-70%)”. The molecule further registered an inhibition at 1 µM in experiment [2] (@ 1 μM) of 30 to 70%.

On to `Nc1nnc(-c2ccccc2O)cc1N1CC2CCC(C1)N2c1ccnc(C#CCCNC(=O)c2cc3ncccn3n2)n1` [Compound P-96, N-(4-(4-(3-(3-amino-6-(2-hydroxyphenyl)pyridazin-4-yl)-3,8-diazabicyclo[3.2.1]octan-8-yl)pyrimidin-2-yl)but-3-yn-1-yl)pyrazolo[1,5-a]pyrimidine-2-carboxamide], for which the DC50 in experiment [1] fell in the range of 500 to 5000 nM; in experiment [2], 50 to 500 nM. Moreover, the “SMARCA2 % Degradation @ 1 μM” value in experiment [1] (@ 1 μM) was “++ (++=30-70%)”. In experiment [2] (@ 1 μM), this molecule registered an inhibition at 1 µM above 70%.

With `COC1CCN(CC#Cc2nccc(N3CCCN(c4cc(-c5ccccc5O)nnc4N)CC3)n2)CC1` [Compound P-378, 0-[6-amino-5-(4-{2-[3-(4-methoxy-1-piperidyl)-1-propynyl]-4-pyrimidinyl}-1,4-diazepan-1-yl)-3-pyridazinyl]phenol], the DC50 in experiment [1] and in experiment [2] was 50 to 500 nM in each case. For the same molecule, the “SMARCA2 % Degradation @ 1 μM” value in experiment [1] (@ 1 μM) is “+++ (+++=>70%)”. The molecule also registered an inhibition at 1 µM in experiment [2] (@ 1 μM) of 30 to 70%.

With `NCC#Cc1nccc(N2CCC3(CC2)CCN(c2cc(-c4ccccc4O)nnc2N)CC3)n1` [Compound P-90, 2-(6-amino-5-(9-(2-(3-aminoprop-1-yn-1-yl)pyrimidin-4-yl)-3,9-diazaspiro[5.5]undecan-3-yl)pyridazin-3-yl)phenol], the DC50 in experiment [1] and in experiment [2] was 500 to 5000 nM in each case. Besides, the “SMARCA2 % Degradation @ 1 μM” value in experiment [1] (@ 1 μM) is “+ (+=<30%)”. Besides, the inhibition at 1 µM in experiment [2] (@ 1 μM) is below 30%.

As to `Nc1nnc(-c2ccccc2O)cc1N1CCN(c2ccnc(C#CCNC(=O)c3cnn4ccccc34)n2)CC1` [Compound P-65, N-(3-(4-(4-(3-amino-6-(2-hydroxyphenyl)pyridazin-4-yl)piperazin-1-yl)pyrimidin-2-yl)prop-2-yn-1-yl)pyrazolo[1,5-a]pyridine-3-carboxamide], the DC50 in experiment [1] and in experiment [2] was 50 to 500 nM throughout. The “SMARCA2 % Degradation @ 1 μM” value in experiment [1] (@ 1 μM) is given as “++ (++=30-70%)”. Besides, in experiment [2] (@ 1 μM), the inhibition at 1 µM is 30 to 70%.

Consider `Nc1nnc(-c2ccccc2O)cc1N1CC2CC(C1)N2c1ccnc(C#CCn2cncn2)n1` [Compound P-205, o-[6-amino-5-(6-{2-[3-(1H-1,2,4-triazol-1-yl)-1-propynyl]-4-pyrimidinyl}-3,6-diazabicyclo[3.1.1]hept-3-yl)-3-pyridazinyl]phenol], for which the values for the DC50 in experiment [1] and in experiment [2] were above 5000 nM and 500 to 5000 nM, respectively. The inhibition at 1 µM in experiment [2] (@ 1 μM) lay within 30 to 70%.
